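How tested: cells in 96-well plates exposed to compound for 48 hours at five concentrations. TGI: concentration producing complete growth inhibition.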
Experiments:
Experiment in all cases: inhibition of tumour cell growth, NCI panel, 48 h
K-562 leukemia = tested on: K-562 leukemia
ACHN renal = tested on: ACHN renal
T-47D breast = tested on: T-47D breast
OVCAR-3 ovarian = tested on: OVCAR-3 ovarian
MDA-MB-231 breast = tested on: MDA-MB-231 breast
786-0 renal = tested on: 786-0 renal
RPMI-8226 leukemia = tested on: RPMI-8226 leukemia
EKVX NSCLC = tested on: EKVX NSCLC
CCRF-CEM leukemia = tested on: CCRF-CEM leukemia
RXF 393 renal = tested on: RXF 393 renal
NCI-H460 lung = tested on: NCI-H460 lung
OVCAR-5 ovarian = tested on: OVCAR-5 ovarian
PC-3 prostate = tested on: PC-3 prostate
NCI/ADR-RES ovarian = tested on: NCI/ADR-RES ovarian
SNB-19 CNS = tested on: SNB-19 CNS
HOP-62 NSCLC = tested on: HOP-62 NSCLC
A549 NSCLC = tested on: A549 NSCLC
SW-620 colon = tested on: SW-620 colon
HCT-15 colon = tested on: HCT-15 colon
HS 578T breast = tested on: HS 578T breast
TK-10 renal = tested on: TK-10 renal
NCI-H522 lung = tested on: NCI-H522 lung
MOLT-4 leukemia = tested on: MOLT-4 leukemia
HOP-92 NSCLC = tested on: HOP-92 NSCLC
MDA-N = tested on: MDA-N
SF-539 CNS = tested on: SF-539 CNS
IGROV1 ovarian = tested on: IGROV1 ovarian
MALME-3M melanoma = tested on: MALME-3M melanoma
A498 renal = tested on: A498 renal
LOX IMVI melanoma = tested on: LOX IMVI melanoma
SN12C renal = tested on: SN12C renal
SF-268 CNS = tested on: SF-268 CNS
UACC-257 melanoma = tested on: UACC-257 melanoma
UO-31 renal = tested on: UO-31 renal
SF-295 CNS = tested on: SF-295 CNS
DU-145 prostate = tested on: DU-145 prostate
OVCAR-8 ovarian = tested on: OVCAR-8 ovarian
SK-MEL-28 melanoma = tested on: SK-MEL-28 melanoma
NCI-H23 lung = tested on: NCI-H23 lung
HCT-116 colon = tested on: HCT-116 colon
HL-60(TB) leukemia = tested on: HL-60(TB) leukemia
MDA-MB-435 = tested on: MDA-MB-435
MCF7 breast = tested on: MCF7 breast
SNB-75 CNS = tested on: SNB-75 CNS
KM12 colon = tested on: KM12 colon
SK-MEL-5 melanoma = tested on: SK-MEL-5 melanoma
UACC-62 melanoma = tested on: UACC-62 melanoma
U251 CNS = tested on: U251 CNS
HT29 colon = tested on: HT29 colon
NCI-H226 lung = tested on: NCI-H226 lung
CAKI-1 renal = tested on: CAKI-1 renal
BT-549 breast = tested on: BT-549 breast
M14 melanoma = tested on: M14 melanoma
SR leukemia = tested on: SR leukemia
COLO 205 colon = tested on: COLO 205 colon
HCC-2998 colon = tested on: HCC-2998 colon
SK-OV-3 ovarian = tested on: SK-OV-3 ovarian
OVCAR-4 ovarian = tested on: OVCAR-4 ovarian
SK-MEL-2 melanoma = tested on: SK-MEL-2 melanoma

## CCOC(=O)C1CCC(=O)N1C(=O)c1cccc(Cl)c1 (stereo not given)
K-562 leukemia
  TGI: > 100 µM
ACHN renal
  TGI: > 100 µM
T-47D breast
  TGI: > 100 µM
OVCAR-3 ovarian
  TGI: > 100 µM
MDA-MB-231 breast
  TGI: > 100 µM
786-0 renal
  TGI: > 100 µM
RPMI-8226 leukemia
  TGI: > 100 µM
EKVX NSCLC
  TGI: > 100 µM
CCRF-CEM leukemia
  TGI: > 100 µM
RXF 393 renal
  TGI: > 100 µM
NCI-H460 lung
  TGI: > 100 µM
OVCAR-5 ovarian
  TGI: > 100 µM
PC-3 prostate
  TGI: > 100 µM
NCI/ADR-RES ovarian
  TGI: > 100 µM
SNB-19 CNS
  TGI: > 100 µM
HOP-62 NSCLC
  TGI: > 100 µM
A549 NSCLC
  TGI: > 100 µM
SW-620 colon
  TGI: > 100 µM
HCT-15 colon
  TGI: > 100 µM
HS 578T breast
  TGI: > 100 µM
TK-10 renal
  TGI: > 100 µM
NCI-H522 lung
  TGI: > 100 µM
MOLT-4 leukemia
  TGI: > 100 µM
HOP-92 NSCLC
  TGI: > 100 µM
MDA-N
  TGI: > 100 µM
SF-539 CNS
  TGI: > 100 µM
IGROV1 ovarian
  TGI: > 100 µM
MALME-3M melanoma
  TGI: > 100 µM
A498 renal
  TGI: > 100 µM
LOX IMVI melanoma
  TGI: > 100 µM
SN12C renal
  TGI: > 100 µM
SF-268 CNS
  TGI: > 100 µM
UACC-257 melanoma
  TGI: > 100 µM
UO-31 renal
  TGI: > 100 µM
SF-295 CNS
  TGI: > 100 µM
DU-145 prostate
  TGI: > 100 µM
OVCAR-8 ovarian
  TGI: > 100 µM
SK-MEL-28 melanoma
  TGI: > 100 µM
NCI-H23 lung
  TGI: > 100 µM
HCT-116 colon
  TGI: > 100 µM
HL-60(TB) leukemia
  TGI: > 100 µM
MDA-MB-435
  TGI: > 100 µM
MCF7 breast
  TGI: > 100 µM
SNB-75 CNS
  TGI: > 100 µM
KM12 colon
  TGI: > 100 µM
SK-MEL-5 melanoma
  TGI: > 100 µM
UACC-62 melanoma
  TGI: 62.4 µM
U251 CNS
  TGI: > 100 µM
HT29 colon
  TGI: > 100 µM
NCI-H226 lung
  TGI: > 100 µM
CAKI-1 renal
  TGI: > 100 µM
BT-549 breast
  TGI: > 100 µM
M14 melanoma
  TGI: > 100 µM
SR leukemia
  TGI: > 100 µM

## O=C1C=CC(=O)c2c(O)c(N3CCOCC3)c(Cl)c(O)c21
K-562 leukemia
  TGI: > 10 µM
ACHN renal
  TGI: 0.739 µM
T-47D breast
  TGI: 4.36 µM
OVCAR-3 ovarian
  TGI: 1.31 µM
MDA-MB-231 breast
  TGI: 0.612 µM
COLO 205 colon
  TGI: 0.395 µM
HCC-2998 colon
  TGI: 3.16 µM
786-0 renal
  TGI: 0.84 µM
RPMI-8226 leukemia
  TGI: > 10 µM
EKVX NSCLC
  TGI: 2.79 µM
CCRF-CEM leukemia
  TGI: > 10 µM
RXF 393 renal
  TGI: 0.464 µM
NCI-H460 lung
  TGI: 2.71 µM
OVCAR-5 ovarian
  TGI: 1.76 µM
PC-3 prostate
  TGI: 1.56 µM
NCI/ADR-RES ovarian
  TGI: 1.43 µM
SNB-19 CNS
  TGI: 3.17 µM
HOP-62 NSCLC
  TGI: 2.36 µM
A549 NSCLC
  TGI: 3.85 µM
SW-620 colon
  TGI: 0.351 µM
SK-OV-3 ovarian
  TGI: 6.22 µM
HCT-15 colon
  TGI: 0.403 µM
HS 578T breast
  TGI: 1.7 µM
TK-10 renal
  TGI: 1.79 µM
NCI-H522 lung
  TGI: 0.83 µM
MOLT-4 leukemia
  TGI: > 2.13 µM
HOP-92 NSCLC
  TGI: 0.675 µM
OVCAR-4 ovarian
  TGI: 0.663 µM
MDA-N
  TGI: 0.396 µM
SF-539 CNS
  TGI: 1 µM
IGROV1 ovarian
  TGI: 1.21 µM
MALME-3M melanoma
  TGI: 0.442 µM
A498 renal
  TGI: 3.01 µM
LOX IMVI melanoma
  TGI: 0.419 µM
SK-MEL-2 melanoma
  TGI: 0.765 µM
SN12C renal
  TGI: 0.425 µM
SF-268 CNS
  TGI: 3.19 µM
UACC-257 melanoma
  TGI: 0.911 µM
UO-31 renal
  TGI: 0.892 µM
SF-295 CNS
  TGI: 3.21 µM
DU-145 prostate
  TGI: 2.93 µM
OVCAR-8 ovarian
  TGI: 1 µM
SK-MEL-28 melanoma
  TGI: 0.786 µM
NCI-H23 lung
  TGI: 0.589 µM
HCT-116 colon
  TGI: 0.403 µM
MDA-MB-435
  TGI: 0.406 µM
MCF7 breast
  TGI: 0.486 µM
SNB-75 CNS
  TGI: 2.04 µM
KM12 colon
  TGI: 3.32 µM
SK-MEL-5 melanoma
  TGI: 0.822 µM
UACC-62 melanoma
  TGI: 1.41 µM
U251 CNS
  TGI: 2.62 µM
HT29 colon
  TGI: 0.586 µM
NCI-H226 lung
  TGI: 3.34 µM
CAKI-1 renal
  TGI: 1.27 µM
BT-549 breast
  TGI: 0.329 µM
M14 melanoma
  TGI: 0.358 µM
SR leukemia
  TGI: > 7.34 µM

## O=CC(O)C(O)C(O)C(O)COC(=O)NCCCCC(=O)C(F)(F)C(F)(F)C(F)(F)C(F)(F)C(F)(F)C(F)(F)C(F)(F)F (stereo not given)
K-562 leukemia
  TGI: 58.5 µM
ACHN renal
  TGI: > 100 µM
T-47D breast
  TGI: > 100 µM
OVCAR-3 ovarian
  TGI: > 100 µM
MDA-MB-231 breast
  TGI: 47.6 µM
COLO 205 colon
  TGI: 61.7 µM
HCC-2998 colon
  TGI: 60.4 µM
786-0 renal
  TGI: > 100 µM
RPMI-8226 leukemia
  TGI: > 100 µM
CCRF-CEM leukemia
  TGI: 56 µM
RXF 393 renal
  TGI: 62.4 µM
NCI-H460 lung
  TGI: 67.6 µM
OVCAR-5 ovarian
  TGI: 33.8 µM
PC-3 prostate
  TGI: 41.5 µM
NCI/ADR-RES ovarian
  TGI: > 100 µM
SNB-19 CNS
  TGI: 31.8 µM
HOP-62 NSCLC
  TGI: 62.8 µM
A549 NSCLC
  TGI: > 100 µM
SW-620 colon
  TGI: 42.1 µM
SK-OV-3 ovarian
  TGI: 56.4 µM
HCT-15 colon
  TGI: > 100 µM
HS 578T breast
  TGI: 64.6 µM
TK-10 renal
  TGI: > 100 µM
MOLT-4 leukemia
  TGI: 31.1 µM
HOP-92 NSCLC
  TGI: 31.8 µM
OVCAR-4 ovarian
  TGI: > 100 µM
MDA-N
  TGI: 73.5 µM
SF-539 CNS
  TGI: 39.2 µM
IGROV1 ovarian
  TGI: > 100 µM
MALME-3M melanoma
  TGI: > 100 µM
A498 renal
  TGI: 47.5 µM
LOX IMVI melanoma
  TGI: 30.1 µM
SK-MEL-2 melanoma
  TGI: 57.5 µM
SN12C renal
  TGI: > 100 µM
SF-268 CNS
  TGI: 93.5 µM
UO-31 renal
  TGI: > 100 µM
SF-295 CNS
  TGI: 59.3 µM
DU-145 prostate
  TGI: > 100 µM
SK-MEL-28 melanoma
  TGI: > 100 µM
NCI-H23 lung
  TGI: > 100 µM
HCT-116 colon
  TGI: 33.4 µM
HL-60(TB) leukemia
  TGI: > 100 µM
MDA-MB-435
  TGI: 62.4 µM
MCF7 breast
  TGI: 34 µM
SNB-75 CNS
  TGI: 59.5 µM
KM12 colon
  TGI: 46.4 µM
SK-MEL-5 melanoma
  TGI: 86.8 µM
UACC-62 melanoma
  TGI: 35.1 µM
HT29 colon
  TGI: > 100 µM
CAKI-1 renal
  TGI: > 100 µM
BT-549 breast
  TGI: 33.9 µM
M14 melanoma
  TGI: 60.2 µM
SR leukemia
  TGI: > 100 µM

Reference: PubChem BioAssay (NCI)
